Values of other authors as cited in US20220380769A1 (priority 2020, published 2022).

Tested on: avian H5N1 influenza virus clades
Conditions: in vivo; cited from earlier work

## rIn.r(C12U)n [Rintatolimod]
  protection from lethal challenge doses of three avian H5N1 influenza virus clades: able to protect
